Tests used:
[1] = Kamlet-Abboud-Taft solvatochromic parameters (dye absorption spectra); type: physicochemical; conditions: for Kamlet-Taft Parameters Π* / Kamlet-Taft Parameters α / Kamlet-Taft Parameters β: Table 1a; for Kamlet-Abboud-Taft α / Kamlet-Abboud-Taft β / Kamlet-Abboud-Taft π: Table 1c; for Kamlet-Taft Π* / Kamlet-Taft α / Kamlet-Taft β: Table 4
Description: Determination of the Kamlet-Abboud-Taft parameters was based on the absorption spectrum of two dyes (N,N-diethyl-4-nitroaniline and 4-nitroaniline) in different solvents, that allow calculating corresponding values using known procedures (P. G. Jessop, D. A. Jessop, D. Fu and L. Phan, Green Chem., 2012, 14, 1245-1259).

[2] = Maximum absorbance of Nile Red dye in the solvent; type: physicochemical
Description: The absorbance spectra of 4-nitroaniline dye (cf. FIG. 10a), N,N-diethyl-4-nitroaniline dye (cf. FIG. 10b) as well as of Nile Red dye (cf. FIG. 10c) in the compounds 1, 3, 4 and 24 of claim 13 as well as in DMSO were measured. Nile Red absorbance is dependent on polarity and acidity, but as acidity is 0 in the case of aprotic solvents, the value is only polarity dependent. This differs from π*, which is both polarity and polarizability dependent. The maximum absorbance of Nile Red in 1, 3, 4 and 24 was measured to be 543, 536, 534.5 and 535 nm respectively. […] Values for 3, 4 and 24 are similar to conventional medium polarity aprotic solvents such as dichloromethane (535.2 nm) and acetonitrile (531.6 nm).
The Nile red value for DEX:PG is 553 nm, indicating similar chemical behavior to Methanol (550 nm) and Ethanolamine (557 nm).

Flash point = type: physicochemical
[3] = Stability of DFX under basic conditions (GC-FID/GC-MS, colour change); type: physicochemical; conditions: Pyridine and KOAc
Description: To assess DFX stability under basic conditions, we tested a series of organic and inorganic bases at 80° C. and 110° C. for maximum 48 h (Table 6). Visual color change compared to a blank solution of pure DFX indicated some reactions were occurring. After 0.5 h, 24 h, 48 h of exposure, the samples were injected in GC-FID and GC-MS and the area of DFX was compared with the one in blank sample using decane as the internal standard. As a result of this experiment, we identified some potential limitations of this emerging solvent. Specifically, inorganic bases such as K2CO3, NaOH, CsCO3 led to the highest extent of degradation (maximum 21% after 48 h). Triethylamine (NEt3) caused less than 5% of degradation, but led to the formation of dark solution as well as K2CO3, NaOH, CsCO3. Probably, impurities existing in DFX (95% pure) also contribute to a color change as they could interact with bases.

[4] = Miscibility with different solvents; type: physicochemical; parameters: key: “*” indicating—not miscible; conditions: Table 1d; blank cell = miscible
[5] = Stability under acidic conditions; type: physicochemical

## C1COCCO1 [1,4-dioxane]
[1]
  Kamlet-Taft Parameters Π*: 0.55
  Kamlet-Taft Parameters α: 0.00
  Kamlet-Taft Parameters β: 0.37
  Kamlet-Abboud-Taft α: 0
  Kamlet-Abboud-Taft β: 0.37
  Kamlet-Abboud-Taft π: 0.55

## CC(C)=O [Acetone, acetone]
[1]
  Kamlet-Taft Π*: 0.71
  Kamlet-Taft α: 0.08
  Kamlet-Taft β: 0.48

## CC#N [Acetonitrile, acetonitrile]
[1]
  Kamlet-Taft Π*: 0.8
  Kamlet-Taft α: 0.35
  Kamlet-Taft β: 0.37
[2]
  maximum absorbance of Nile Red: 531.6 nm

## COC1CCCC1 [CPME, cyclopentyl methyl ether]
Flash point
  Flash point: −1 °C

## C1OC[C@H]2O[C@@H]3OCO[C@@H]3[C@H]2O1 [Compound 1, Diformylxylose]
other
  melting point: 48 °C
[3]
  effect on stability: didn't show any significant effect

## CC1CCCO1 (centres unmarked) [Compound 2-Me-THF]
Flash point
  Flash point: −10 °C

## CC1CCCO1 (centres unmarked) [Compound 2-MeTHF, 2-methyltetrahydrofuran]
[1]
  Kamlet-Abboud-Taft α: 0
  Kamlet-Abboud-Taft β: 0.58
  Kamlet-Abboud-Taft π: 0.53

## CC1OC[C@H]2O[C@@H]3OC(C)O[C@@H]3[C@H]2O1 (some centres unmarked) [Compound 2]
other
  melting point: 60 °C

## CCC1OC[C@H]2O[C@@H]3OC(CC)O[C@@H]3[C@H]2O1 (some centres unmarked) [Compound 3]
other
  melting point: 34 °C
[1]
  Kamlet-Abboud-Taft α: 0
  Kamlet-Abboud-Taft β: 0.63
  Kamlet-Abboud-Taft π: 0.68
[2]
  maximum absorbance of Nile Red: 536 nm

## CC(C)C1OC[C@H]2O[C@@H]3OC(C(C)C)O[C@@H]3[C@H]2O1 (some centres unmarked) [Compound 4]
other
  melting point: 31 °C
[1]
  Kamlet-Abboud-Taft α: 0
  Kamlet-Abboud-Taft β: 0.51
  Kamlet-Abboud-Taft π: 0.63
[2]
  maximum absorbance of Nile Red: 534.5 nm

## CC(C)(C)C1OC[C@H]2O[C@@H]3OC(C(C)(C)C)O[C@@H]3[C@H]2O1 (some centres unmarked) [Compound 5]
other
  melting point: 120 °C

## CC1(C)OC[C@H]2O[C@@H]3OC(C)(C)O[C@@H]3[C@H]2O1 [Compound 11]
other
  melting point: 43 °C

## COC(=O)C1OC[C@H]2O[C@@H]3OC(C(=O)OC)O[C@@H]3[C@H]2O1 (some centres unmarked) [Compound 14]
other
  melting point: 83 °C

## CCCC1OC[C@H]2O[C@@H]3OC(CCC)O[C@@H]3[C@H]2O1 (some centres unmarked) [Compound 24]
other
  melting point: 24.5 °C
[1]
  Kamlet-Abboud-Taft α: 0
  Kamlet-Abboud-Taft β: 0.56
  Kamlet-Abboud-Taft π: 0.65
[2]
  maximum absorbance of Nile Red: 535 nm
[4]
  Miscibility with Water: *

## C1CCCCC1 [Cyclohexane, cyclohexane]
[1]
  Kamlet-Abboud-Taft α: 0
  Kamlet-Abboud-Taft β: 0
  Kamlet-Abboud-Taft π: 0

## O=C1CC[C@H]2CO[C@@H]1O2 [Cyrene]
[1]
  Kamlet-Taft Parameters Π*: 0.93
  Kamlet-Taft Parameters α: 0.00
  Kamlet-Taft Parameters β: 0.61
Flash point
  Flash point: 108 °C
[5]; 95° C. or 70° C., 0.8M HCl, 15 min
  stability under acidic conditions: extensive degradation

## CCCC1OCC2OC3OC(CCC)OC3C2O1 (centres unmarked) [DBX, Dibutylxylose]
[5]
  sensitivity to strong acids (visual, orange-colored solution): showed sensitivity to strong acids

## CC(C)C1OCC2OC3OC(C(C)C)OC3C2O1 (centres unmarked) [DIBX, Diisobutylxylose]
[5]
  sensitivity to strong acids (visual, orange-colored solution): showed sensitivity to strong acids

## CN(C)C=O [DMF, N,N-dimethylformamide]
[2]
  maximum absorbance of Nile Red: 541 nm

## C[S+](C)[O-] [DMSO, dimethyl sulfoxide]
[1]
  Kamlet-Taft Parameters Π*: 1.00
  Kamlet-Taft Parameters α: 0.00
  Kamlet-Taft Parameters β: 0.74

## CC(C)(C)C1OCC2OC3OC(C(C)(C)C)OC3C2O1 (centres unmarked) [DNPX, Dineopentylxylose]
[5]
  sensitivity to strong acids (visual, orange-colored solution): showed sensitivity to strong acids

## CCC1OCC2OC3OC(CC)OC3C2O1 (centres unmarked) [DPX, Dipropylxylose]
[5]
  sensitivity to strong acids (visual, orange-colored solution): showed sensitivity to strong acids

## NCCO [Ethanolamine]
[2]
  maximum absorbance of Nile Red: 557 nm

## O=C1OCCO1 [Ethylene carbonate]
[1]
  Kamlet-Taft Parameters Π*: 0.99
  Kamlet-Taft Parameters α: 0.00
  Kamlet-Taft Parameters β: 0.32

## CC1CCC(=O)O1 (centres unmarked) [GVL, -valerolactone]
[1]
  Kamlet-Taft Parameters Π*: 0.83
  Kamlet-Taft Parameters α: 0.00
  Kamlet-Taft Parameters β: 0.60
Flash point
  Flash point: 96.1 °C

## COC(C)(C)C [MTBE]
Flash point
  Flash point: −28 °C

## CO [Methanol, methanol]
[2]
  maximum absorbance of Nile Red: 550 nm

## CCCCN1CCCC1=O [N-butylpyrrolidinone]
[1]
  Kamlet-Taft Parameters Π*: 0.77
  Kamlet-Taft Parameters α: 0.00
  Kamlet-Taft Parameters β: 0.92

## O=S1(=O)CCCC1 [Sulfolane]
[1]
  Kamlet-Taft Parameters Π*: 0.98
  Kamlet-Taft Parameters α: 0.00
  Kamlet-Taft Parameters β: 0.39
[2]
  maximum absorbance of Nile Red: 545 nm

## C1CCOC1 [THF, Tetrahydrofuran]
[1]
  Kamlet-Abboud-Taft α: 0
  Kamlet-Abboud-Taft β: 0.55
  Kamlet-Abboud-Taft π: 0.58

## ClCCl [dichloromethane]
[2]
  maximum absorbance of Nile Red: 535.2 nm
